Assay results taken from US8653075B2, “Therapeutic methods employing substituted piperidines which are CCR3 antagonists” (Boehringer Ingelheim International GmbH, priority 2009, dated 2014).

Biological target: T1, human chemokine receptor CCR3 (Homo sapiens, UniProt P51677)
T1 construct: expressed in transfected cells; host or cells: K562 cell line (hCCR3-C1 cells), membrane preparation
T1 sequence (P51677 1-355): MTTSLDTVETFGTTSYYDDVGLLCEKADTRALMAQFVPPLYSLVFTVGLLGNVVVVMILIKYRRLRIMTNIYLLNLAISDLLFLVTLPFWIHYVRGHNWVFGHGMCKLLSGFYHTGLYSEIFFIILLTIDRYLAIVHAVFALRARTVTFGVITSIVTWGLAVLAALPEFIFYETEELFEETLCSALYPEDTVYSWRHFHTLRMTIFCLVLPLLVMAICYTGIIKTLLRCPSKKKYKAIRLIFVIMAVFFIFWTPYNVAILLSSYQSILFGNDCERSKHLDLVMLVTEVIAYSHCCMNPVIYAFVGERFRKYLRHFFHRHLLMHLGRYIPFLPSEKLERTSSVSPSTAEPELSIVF
Experiment: CCR3 receptor binding assay (SPA, 125I-eotaxin-1 displacement, hCCR3-C1 K562 cell membranes)
Details: human Eotaxin-1 at human CCR3-Rezeptor; for inhibition at 1 µM: 1 μM test compound, read-out: CCR3 % inh @ 1 μM; for Ki: dose range 0.1 to 10000 nM
In short: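 SPA displacement of recombinant human 125I-eotaxin-1 (30.000 dpm per well) from membranes of CCR3-transfected K562 cells (0.5-10 μg protein/well) on WGA beads. Buffer was 25 mM HEPES, 25 mM MgCl2, 1 mM CaCl2, 0.1% BSA; incubation 2 h at room temperature. Specific binding was total minus NSB (unlabelled eotaxin-1), giving % inhibition and Ki.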

SMILES: CNC(=O)c1cccc(NC(=O)[C@H]2CCC(=O)N2C2CCN(Cc3ccc(Cl)c(F)c3)CC2)c1 [Example 204]
- inhibition at 1 µM: 80%
- Ki: 299 nM

SMILES: CNC(=O)c1cccc(NC(=O)[C@H]2CCC(=O)N2C2CCN(Cc3ccc(C)c(C)c3)CC2)c1 [Example 205]
- inhibition at 1 µM: 76%
- Ki: 247 nM

SMILES: CNC(=O)c1cccc(NC(=O)[C@H]2CCC(=O)N2C2CCN(Cc3ccc(Cl)s3)CC2)c1 [Example 206]
- inhibition at 1 µM: 77%
- Ki: 357 nM

SMILES: CNC(=O)c1cccc(NC(=O)[C@H]2CCC(=O)N2C2CCN(Cc3cc(Br)cs3)CC2)c1 [Example 207]
- inhibition at 1 µM: 75%
- Ki: 442 nM

SMILES: Cc1cc(CN2CCC(N3C(=O)N(C)C[C@H]3C(=O)Nc3cc(C4CC4)nn3C)CC2)ccc1Cl [Example 209]
- inhibition at 1 µM: 95%
- Ki: 33 nM

SMILES: Cc1cc(-c2nc[nH]n2)cc(NC(=O)C2CCC(=O)N2C2CCN(Cc3ccc(Cl)c(C)c3)CC2)n1 (stereo not drawn) [Example 210]
- inhibition at 1 µM: 96%

SMILES: Cc1cc(-c2nc[nH]n2)cc(NC(=O)[C@H]2CCC(=O)N2C2CCN(Cc3ccc(Cl)c(C)c3)CC2)n1 [Example 210]
- Ki: 13 nM

SMILES: Cc1cc(CN2CCC(N3C(=O)CC[C@@H]3C(=O)Nc3cc(-c4nc[nH]n4)ccn3)CC2)ccc1Cl [Example 211]
- inhibition at 1 µM: 93%
- Ki: 48 nM

SMILES: CCCCc1cc(C(=O)N(C)C)cc(NC(=O)C2CCC(=O)N2C2CCN(Cc3ccc(Cl)c(C)c3)CC2)n1 (stereo not drawn) [Example 213]
- inhibition at 1 µM: 66%
- Ki: 414 nM

SMILES: Cc1cc(CN2CCC(N3C(=O)CC[C@@H]3C(=O)Nc3cc(C(=O)N(C)C)cc(C4CC4)n3)CC2)ccc1Cl [Example 214]
- inhibition at 1 µM: 101%
- Ki: 2 nM
